Activity calls are given as the source filed them. No cut-off for these calls is given here.
How the values were obtained:
Escherichia coli [1] = experiment: Synergistic antibacterial activity against carbapenem-resistant Escherichia coli 567975 assessed as reduction in microbial growth at 16 ug/ml measured after 16 to 18 hrs in presence of imipenem by microbial dilution method; type: functional; conditions: dose 16 µg/ml, time 16-18 hrs
Enterobacter cloacae = experiment: Synergistic antibacterial activity against carbapenem-resistant Enterobacter cloacae BAA-2468 assessed as reduction in microbial growth at 0.5 ug/ml measured after 16 to 18 hrs in presence of imipenem by microbial dilution method; type: functional; conditions: dose 0.5 µg/ml, time 16-18 hrs
Klebsiella pneumoniae [2] = experiment: Synergistic antibacterial activity against carbapenem-resistant Klebsiella pneumoniae 565345 assessed as reduction in microbial growth at 4 ug/ml measured after 16 to 18 hrs in presence of meropenem by microbial dilution method; type: functional; conditions: dose 4 µg/ml, time 16-18 hrs
Klebsiella pneumoniae [3] = experiment: Synergistic antibacterial activity against carbapenem-resistant Klebsiella pneumoniae 565345 assessed as reduction in microbial growth at 16 ug/ml measured after 16 to 18 hrs in presence of imipenem by microbial dilution method; type: functional; conditions: dose 16 µg/ml, time 16-18 hrs
Klebsiella pneumoniae [4] = experiment: Synergistic antibacterial activity against carbapenem-resistant Klebsiella pneumoniae BAA-2473 assessed as reduction in microbial growth at 16 ug/ml measured after 16 to 18 hrs in presence of imipenem by microbial dilution method; type: functional; conditions: dose 16 µg/ml, time 16-18 hrs
[5] = tested on: Klebsiella pneumoniae subsp. pneumoniae; experiment: Synergistic antibacterial activity against carbapenem-resistant Klebsiella pneumoniae BAA-2472 assessed as reduction in microbial growth at 16 ug/ml measured after 16 to 18 hrs in presence of meropenem by microbial dilution method; type: functional; conditions: dose 16 µg/ml, time 16-18 hrs
Klebsiella pneumoniae [6] = experiment: Synergistic antibacterial activity against carbapenem-resistant Klebsiella pneumoniae BAA-2473 assessed as reduction in microbial growth at 8 ug/ml measured after 16 to 18 hrs in presence of meropenem by microbial dilution method; type: functional; conditions: dose 8 µg/ml, time 16-18 hrs
[7] = molecular target: Metallo-beta-lactamase type 2 (Bacteria) (UniProt C7C422); experiment: Induction of thermal stabilization of NDM-1 (unknown origin) assessed as melting temperature at 12.5 uM by differential scanning fluorimetry analysis
Escherichia coli [8] = experiment: Synergistic antibacterial activity against carbapenem-resistant Escherichia coli 571307 assessed as reduction in microbial growth at 4 ug/ml measured after 16 to 18 hrs in presence of meropenem by microbial dilution method; type: functional; conditions: dose 4 µg/ml, time 16-18 hrs
Escherichia coli [9] = experiment: Synergistic antibacterial activity against carbapenem-resistant Escherichia coli 541588 assessed as reduction in microbial growth at 4 ug/ml measured after 16 to 18 hrs in presence of meropenem by microbial dilution method; type: functional; conditions: dose 4 µg/ml, time 16-18 hrs
[10] = molecular target: Metallo-beta-lactamase type 2 (Bacteria) (UniProt C7C422); experiment: Induction of thermal stabilization of NDM-1 (unknown origin) assessed as melting temperature at 25 uM by differential scanning fluorimetry analysis
[11] = tested on: Klebsiella pneumoniae subsp. pneumoniae; experiment: Synergistic antibacterial activity against carbapenem-resistant Klebsiella pneumoniae subsp. pneumoniae BAA-2470 assessed as reduction in microbial growth at 0.5 ug/ml measured after 16 to 18 hrs in presence of imipenem by microbial dilution method; type: functional; conditions: dose 0.5 µg/ml, time 16-18 hrs
[12] = Octanol/aqueous buffer distribution coefficient, log D of the compound at pH 7.4 incubated for 4 hrs under shaking condition by HPLC analysis; type: physicochemical
[13] = tested on: Klebsiella pneumoniae subsp. pneumoniae; experiment: Synergistic antibacterial activity against carbapenem-resistant Klebsiella pneumoniae subsp. pneumoniae BAA-2470 assessed as reduction in microbial growth at 8 ug/ml measured after 16 to 18 hrs in presence of imipenem by microbial dilution method; type: functional; conditions: dose 8 µg/ml, time 16-18 hrs
Escherichia coli [14] = experiment: Synergistic antibacterial activity against carbapenem-resistant Escherichia coli BAA-2469 assessed as reduction in microbial growth at 0.5 ug/ml measured after 16 to 18 hrs in presence of meropenem by microbial dilution method; type: functional; conditions: dose 0.5 µg/ml, time 16-18 hrs
[15] = molecular target: Metallo-beta-lactamase type 2 (Bacteria) (UniProt C7C422); experiment: Induction of thermal stabilization of NDM-1 (unknown origin) assessed as melting temperature at 50 uM by differential scanning fluorimetry analysis
Escherichia coli [16] = experiment: Synergistic antibacterial activity against carbapenem-resistant Escherichia coli BAA-2471 assessed as reduction in microbial growth at 8 ug/ml measured after 16 to 18 hrs in presence of imipenem by microbial dilution method; type: functional; conditions: dose 8 µg/ml, time 16-18 hrs
Klebsiella pneumoniae [17] = experiment: Synergistic antibacterial activity against carbapenem-resistant Klebsiella pneumoniae 571278 assessed as reduction in microbial growth at 16 ug/ml measured after 16 to 18 hrs in presence of meropenem by microbial dilution method; type: functional; conditions: dose 16 µg/ml, time 16-18 hrs
Escherichia coli [18] = experiment: Synergistic antibacterial activity against carbapenem-resistant Escherichia coli 565988 assessed as reduction in microbial growth at 16 ug/ml measured after 16 to 18 hrs in presence of meropenem by microbial dilution method; type: functional; conditions: dose 16 µg/ml, time 16-18 hrs
Klebsiella pneumoniae [19] = experiment: Synergistic antibacterial activity against carbapenem-resistant Klebsiella pneumoniae 552439 assessed as reduction in microbial growth at 4 ug/ml measured after 16 to 18 hrs in presence of imipenem by microbial dilution method; type: functional; conditions: dose 4 µg/ml, time 16-18 hrs
Klebsiella pneumoniae [20] = experiment: Synergistic antibacterial activity against carbapenem-resistant Klebsiella pneumoniae 565345 assessed as reduction in microbial growth at 4 ug/ml measured after 16 to 18 hrs in presence of imipenem by microbial dilution method; type: functional; conditions: dose 4 µg/ml, time 16-18 hrs
Escherichia coli [21] = experiment: Synergistic antibacterial activity against carbapenem-resistant Escherichia coli 541588 assessed as reduction in microbial growth at 4 ug/ml measured after 16 to 18 hrs in presence of imipenem by microbial dilution method; type: functional; conditions: dose 4 µg/ml, time 16-18 hrs
[22] = tested on: Klebsiella pneumoniae subsp. pneumoniae; experiment: Synergistic antibacterial activity against carbapenem-resistant Klebsiella pneumoniae subsp. pneumoniae BAA-2470 assessed as reduction in microbial growth at 8 ug/ml measured after 16 to 18 hrs in presence of meropenem by microbial dilution method; type: functional; conditions: dose 8 µg/ml, time 16-18 hrs
Klebsiella pneumoniae [23] = experiment: Synergistic antibacterial activity against carbapenem-resistant Klebsiella pneumoniae 552439 assessed as reduction in microbial growth at 4 ug/ml measured after 16 to 18 hrs in presence of meropenem by microbial dilution method; type: functional; conditions: dose 4 µg/ml, time 16-18 hrs
Klebsiella pneumoniae [24] = experiment: Synergistic antibacterial activity against carbapenem-resistant Klebsiella pneumoniae 538961 assessed as reduction in microbial growth at 16 ug/ml measured after 16 to 18 hrs in presence of meropenem by microbial dilution method; type: functional; conditions: dose 16 µg/ml, time 16-18 hrs
Escherichia coli [25] = experiment: Synergistic antibacterial activity against carbapenem-resistant Escherichia coli 567975 assessed as reduction in microbial growth at 4 ug/ml measured after 16 to 18 hrs in presence of imipenem by microbial dilution method; type: functional; conditions: dose 4 µg/ml, time 16-18 hrs
[26] = molecular target: Metallo-beta-lactamase type 2 (Bacteria) (UniProt C7C422); experiment: Induction of thermal stabilization of NDM-1 (unknown origin) assessed as increase in melting temperature by differential scanning fluorimetry analysis; conditions: dose 3.12-50 µM
Escherichia coli [27] = experiment: Synergistic antibacterial activity against carbapenem-resistant Escherichia coli BAA-2471 assessed as reduction in microbial growth at 0.5 ug/ml measured after 16 to 18 hrs in presence of meropenem by microbial dilution method; type: functional; conditions: dose 0.5 µg/ml, time 16-18 hrs
Klebsiella pneumoniae [28] = experiment: Synergistic antibacterial activity against carbapenem-resistant Klebsiella pneumoniae 571278 assessed as reduction in microbial growth at 16 ug/ml measured after 16 to 18 hrs in presence of imipenem by microbial dilution method; type: functional; conditions: dose 16 µg/ml, time 16-18 hrs
[29] = tested on: Klebsiella pneumoniae subsp. pneumoniae; experiment: Synergistic antibacterial activity against carbapenem-resistant Klebsiella pneumoniae BAA-2470 assessed as reduction in microbial growth at 16 ug/ml measured after 16 to 18 hrs in presence of imipenem by microbial dilution method; type: functional; conditions: dose 16 µg/ml, time 16-18 hrs
Escherichia coli [30] = experiment: Synergistic antibacterial activity against carbapenem-resistant Escherichia coli BAA-2469 assessed as reduction in microbial growth at 0.5 ug/ml measured after 16 to 18 hrs in presence of imipenem by microbial dilution method; type: functional; conditions: dose 0.5 µg/ml, time 16-18 hrs

Chain of Metallo-beta-lactamase type 2 (Bacteria) (C7C422 whole entry): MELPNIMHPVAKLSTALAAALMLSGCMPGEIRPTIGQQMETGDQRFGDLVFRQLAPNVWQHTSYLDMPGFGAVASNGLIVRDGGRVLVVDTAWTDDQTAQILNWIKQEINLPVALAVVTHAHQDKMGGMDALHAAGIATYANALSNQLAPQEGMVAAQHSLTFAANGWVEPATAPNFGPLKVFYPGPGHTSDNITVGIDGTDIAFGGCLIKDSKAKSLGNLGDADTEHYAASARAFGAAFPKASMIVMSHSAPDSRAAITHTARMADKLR

For `COc1ccc(Cl)cc1-c1c(C(=O)O)[nH]c2c1CCc1ccccc1-2`, the MIC (Escherichia coli [1]) was 1 µg/mL, the MIC (Enterobacter cloacae) was > 64 µg/mL and the MIC (Klebsiella pneumoniae [2]) was 4 µg/mL. It also gave an MIC (Klebsiella pneumoniae [3]) of 8 µg/mL, an MIC (Klebsiella pneumoniae [4]) of 8 µg/mL and an MIC [5] of 32 µg/mL. The MIC (Klebsiella pneumoniae [6]) was 16 µg/mL, the Tm [7] was 18 °C and the MIC (Escherichia coli [8]) was 2 µg/mL. It also gave an MIC (Escherichia coli [9]) of 8 µg/mL, a Tm [10] of 19 °C and an MIC [11] of 16 µg/mL. For the same molecule, the logD at 4 h [12] was 2.58, the MIC [13] was 2 µg/mL and the MIC (Escherichia coli [14]) was 16 µg/mL. The Tm [15] was 20 °C, the MIC (Escherichia coli [16]) was 16 µg/mL and the MIC (Klebsiella pneumoniae [17]) was 16 µg/mL. For the same molecule, the MIC (Escherichia coli [18]) was < 0.5 µg/mL, the MIC (Klebsiella pneumoniae [19]) was 4 µg/mL and the MIC (Klebsiella pneumoniae [20]) was 32 µg/mL. The MIC (Escherichia coli [21]) was 1 µg/mL, the MIC [22] was 8 µg/mL and the MIC (Klebsiella pneumoniae [23]) was 16 µg/mL. For the same molecule, the MIC (Klebsiella pneumoniae [24]) was 4 µg/mL, the MIC (Escherichia coli [25]) was 8 µg/mL and the Activity [26] was “Active”. It also gave an MIC (Escherichia coli [27]) of 64 µg/mL, an MIC (Klebsiella pneumoniae [28]) of 4 µg/mL and an MIC [29] of 2 µg/mL. It also gave an MIC (Escherichia coli [30]) of 32 µg/mL.
